Values quoted from earlier work, collected in US12324430B2, “Topical antiseptic system” (INFECTION CONTAINMENT COMPANY, LLC, priority 2015, dated 2025).

Substance | water solubility (in words)
zinc glycerate | moderately water soluble
zinc picolinate | moderately water soluble
